# Measurements from patent publication US20230340149A1, “METHODS OF TREATMENT OF INFLAMMATORY BOWEL DISEASES” (INSERM (INSTITUT NATIONAL DE LA SANTÉ ET DE LA RECHERCHE …, priority 2020, published 2023).
# Like-named read-outs stand apart in the source and are kept apart here.
# Experiments:
# [1] = tested on: IBD patients; details: in vivo; cited from earlier work
# [2] = cited from earlier work
# [3] = highly basic guanidine; cited from earlier work
# [4] = in vivo, cited from earlier work
# [5] = tested on: thrombin activity in human colonic tissues from CD patients; test: In situ zymography of thrombin activity on frozen colonic tissue sections; assay type: biochemical; details: CD patient colonic cryo-sections, 10 μM, data not shown
# [6] = tested on: TNBS-induced colitis in rats; test: TNBS-induced colitis in rats, daily intracolonic treatment; assay type: in vivo, rat; details: vs vehicle
# [7] = tested on: cytochrome P450 enzymes; details: cited from earlier work
# [8] = tested on: mouse colon; test: Daily intracolonic administration of thrombin in mice, inflammation parameters; assay type: in vivo
# Description: Thrombin (specific activity 2000 NIH units/mg protein, T6884, Sigma) was administered daily for 10-days intracolonically daily (5 U/mouse in 50 μl in saline, 0.9% NaCl) under light anaesthesia (3% isoflurane) in PAR-1^−/−, PAR4^−/−, littermates and in mice purchased from Janvier laboratories. Controls received heat-inactivated thrombin (same dose, 10 minutes at 100° C.) or saline alone. After intracolonic instillation, mice were kept upside-down for 2-min to allow colonic diffusion of the administered solution. After 10-days, mice were sacrificed by cervical dislocation and inflammation parameters were measured.
# TNBS colitis was induced in fasted rats as previously described^20,21. Animals were housed in ventilated cages, acclimatized for one week before experiment started and beddings were mixed twice. Briefly, TNBS was prepared at a final concentration of 120 mg/ml in 50% ethanol in saline and was kept in the dark before use. A catheter was inserted at 8 cm from the anus and 30 mg of the TNBS solution was instilled through the catheter into the lumen in a final volume of 250 μl/rat. For TNBS colitis induction in mice, fasted animals were lightly anesthetized with halothane. A polyethylene catheter was inserted intracolonically 4 cm from the anus and TNBS (2 mg/mouse in 100 μl) dissolved in a solution of saline plus 40% ethanol was pushed into the catheter. At time of the sacrifice, colonic tissues were harvested. Before opening the colon, luminal washes with a PBS solution were performed in order to measure thrombin activity in those washes. Colons were then cut opened. Macroscopic damage scores were evaluated as previously described^9, by a skilled observer unaware of the treatments. When observed, the following parameters were given score of 1: hemorrhage, edema, stricture, ulceration, fecal blood, mucus, and diarrhea. Erythema was scored a maximum of 2 depending on the length of the area being affected (0, absent; 1, less than 1 cm; and 2, more than 1 cm). Adhesion was scored based on its severity (0, absent; 1, moderate; and 2, severe). Colon thickness was measured using an electronic caliper (Mitutoyo, Mississauga, Canada, resolution 0.01 mm). MPO activity was measured as an index of granulocyte infiltration as previously described. Tissue samples were homogenized in a solution of 0.5% hexadecyltrimethylammonium bromide dissolved in phosphate buffer solution (pH 6.0) for 1 min. Homogenized tissues were centrifuged at 13 000 g for 2 min. Supernatants were added to a buffer supplemented with 1% hydrogen peroxide, and O-dianisidine dihydrochloride solution. Optical density readings were taken for 1 min at 30 s intervals at 450 nm^22. Results were normalized to total protein content and expressed as OD450 nm/min/μg/ml. For bacterial translocation assays, mesenteric lymph nodes were collected aseptically, weighed and homogenized before being plated at 37° C. in Columbia blood agar (BD Biosciences) for 24 h for aerobes, and for 48 h for anaerobes left in anaerobic jars^9. For permeability assays, mice received orally 4-kDa FITC Dextran (Sigma Aldrich) at the dose of 600 mg/kg body weight in PBS, and blood was collected 1-h after. Fluorescence for FITC-Dextran presence in serum was measured by spectrophotometry (excitation 485 nm, emission 528 nm)^23. Apoptosis was measured by TUNEL (terminal deoxynucleotidyl transferase dUTP nick end labeling) staining in mouse colonic tissues as previously described^24,25. Five random fields were captured per tissue section and percent of apoptotic cells was determined by an observer unaware of the treatments.
# [9] = tested on: adherent-invasive Escherichia coli (strain LF82) biofilms; test: Adhesion and invasion of bacteria from thrombin-exposed E. coli LF82 biofilms on Caco2 monolayers; assay type: cell-based
# Description: Panel B) Biofilms of adherent-invasive Escherichia coli (strain LF82) were formed into the Calgary Biofilm Device (Innovotech, Canada). After 48 hours of incubation (37° C., anaerobic environment), biofilms were exposed to various concentrations of human thrombin (0, 10, 100 to 1000 milliunit/ml). After 24 hours, dispersed bacteria from thrombin-treated biofilms were collected and apically exposed to human epithelial monolayers on 12-wells plates (Caco2, ATCC HB37). Bacterial adhesion to epithelial surface was assessed. Briefly, after 90 minutes of co-culture, cells were vigorously washed in PBS, and lyzed in Triton X100 0.1% for 10 minutes, after which live cell bacteria were counted on Columbia blood agar (CFU were counted after 24 hours incubation of plates at 37° C.). Data represent fold change CFU/ml count compared to untreated controls (=1). ANOVA with Fisher's LSD test, *P<0.05
# Panel C) Mucosa-associated microbiota was extracted from 3 healthy human colon biopsies (collected in Toulouse Hospital under ethic approval CODECOH Colic-DC2015-2443), under anaerobic condition, and were seeded into the Calgary Biofilm Device (Innovotech, Canada) to develop a multispecies biofilm. After 48 hours of incubation (37° C., anaerobic environment), biofilms were exposed to human thrombin (0 and 100 milliunit/ml). […] Bacterial invasion into epithelial cells was assessed. […]
# [10] = tested on: human mucosa-associated microbiota biofilms; test: Adhesion of bacteria dispersed from thrombin-exposed human mucosal biofilms to Caco2 monolayers; assay type: cell-based; details: biofilms exposed to 1 U/ml
# Description: Methods for FIG. 7. Panel A: Mucosa-associated microbiota was extracted from 4 healthy human colon biopsies (collected in Toulouse Hospital under ethic approval CODECOH Colic-DC2015-2443), under anaerobic condition, and were seeded into the Calgary Biofilm Device (Innovotech, Canada) to develop a multispecies biofilm. After 48 hours of incubation (37° C., anaerobic environment), biofilms were exposed to various concentrations of human thrombin (0, 10, 100 and 1000 milliunit/ml). After 24 hours, dispersed bacteria from thrombin-treated biofilms were collected and apically exposed to human epithelial monolayers on 12-wells plates (Caco2, ATCC HB37). Bacterial adhesion to epithelial surface was assessed. Briefly, after 90 minutes of co-culture, cells were vigorously washed in PBS, and lyzed in Triton X100 0.1% for 10 minutes, after which live cell bacteria were counted on Columbia blood agar (CFU were counted after 24 hours incubation of plates at 37° C.). Data represent fold change CFU/ml count compared to untreated controls (=1). ANOVA with Fisher's LSD test, *P<0.05, ***P<0.001.
# [11] = HAT 1, 2, 3 studies, HIT, versus historical controls
# [12] = 50 μl of 100 U/ml per mouse daily for 10 days, vs vehicle (saline)
compound,measurement,setting,value
heparin,benefit of treatment in IBD patients,[1],some benefits
lepirudin,risk for major bleeding,[2]; [11],increased
same,risk of new thrombosis,[2]; [11],decreased
CC1CNc2c(cccc2S(=O)(=O)N[C@@H](CCCNC(=N)N)C(=O)N2CC[C@@H](C)C[C@@H]2C(=O)O)C1 (some centres unmarked) [Argatroban],pKa,[3],13
same,plasma half-life,[4],approximately 45 minutes
hirudin,incidence of bleeding compared with heparin,"[2]; meta-analysis of 11 randomized trials, acute coronary syndrome",significantly higher incidence of bleeding
same,distributed in the extravascular compartment,[4],80%
same,found in the plasma,[4],20%
bivalirudin,rate of bleeding compared to heparin,[2]; acute coronary syndrome,lower rate of bleeding
same,excreted by the kidneys,[4],about 20%
[H]/N=C(/N)c1ccc(NCc2nc3cc(C(=O)N(CCC(=O)O)c4ccccn4)ccc3n2C)cc1 [Dabigatran],thrombin activity detected in tissue (VPR-AMC substrate),[5],inhibited
same,oral availability / oral activity,[4],not orally active
same,MPO activity,[6]; 100 μl 5 μM,reducing significantly
same,colon thickness,[6]; 100 μl 5 μM,reducing significantly
same,macroscopic damage score,[6]; 100 μl 5 μM,reducing significantly
same,weight loss,[6]; 100 μl 5 μM,reducing significantly
same,blood in the feces (fecal bleeding score),[6],reduced significantly
CCOC(=O)CN[C@@H](C(=O)N1CC[C@H]1C(=O)NCc1ccc(/C(N)=N\O)cc1)C1CCCCC1 [Ximelagatran],hepatic toxicity,[2]; treatment for over 35 days,linked with the risk of hepatic toxicity
CCCCCCOC(=O)NC(=N)c1ccc(NCc2nc3cc(C(=O)N(CCC(=O)OCC)c4ccccn4)ccc3n2C)cc1 [dabigatran etexilate],hepatic toxicity,[2]; long-term treatment,has not been linked with hepatic toxicity
same,eliminated by the kidneys,[4],> 80%
same,plasma half-life,[4],approximately 12 hours
same,interaction with cytochrome P450 enzymes,[7],lacks interaction
desirudin,bleeding rates versus heparin,[2]; in vivo,similar
same,rate of proximal deep vein thrombosis,[2]; in vivo,reduced
same,prevention of VTE,[2]; versus enoxaparin or unfractionated heparin,superior
N=C(N)c1ccc(CNC(=O)[C@@H]2CCN2C(=O)[C@H](NCC(=O)O)C2CCCCC2)cc1 [melagatran],oral availability / oral activity,[4],poorly orally available
thrombin,translocation of aerobic bacteria into mesenteric lymph nodes,[8]; 50 μl of 100 U/ml per mouse daily for 10 days,caused the translocation
same,colon thickness,[8]; [12],significant increase
same,macroscopic damage,[8]; [12],caused macroscopic damage
same,"damage score, wall thickness and MPO activity",[8]; PAR4-deficient mice,significantly reduced
same,"macroscopic damage, colonic wall thickness and MPO activity",[8]; PAR-1-deficient mice,still exhibited significant
same,translocation of anaerobic bacteria,[8]; vs vehicle or boiled thrombin,not significantly different
same,adhesion to human intestinal epithelium monolayers,[9]; biofilms exposed to 0.01 U/ml,adhered significantly more
same,ability to invade human intestinal epithelium monolayers,[9]; biofilms exposed to 0.1 U/ml,significantly increased
same,potential to adhere to human intestinal epithelium monolayers,[10],increased
